# Measurements from patent US6469052B2, “Compounds for the photodecontamination of pathogens in blood” (Cerus Corporation, priority 1993, dated 2002).
# Like-named read-outs stand apart in the source and are kept apart here.
# Assays:
# [1] = tested on: Salmonella typhimurium TA1537; assay: Ames assay (dark mutagenicity), strain TA1537
# Source text: (§1) The second property that is important in testing a compound for use in methods of the present invention is mutagenicity. The most widely used mutagen/carcinogen screening assay is the Ames test. This assay is described by D. M. Maron and B. N. Ames in Mutation Research 113: 173 ( 1983) and a specific screen is described in detail in Example 17, below. The Ames test utilizes several unique strains of Salmonella typhimurium that are histidine- dependent for growth and that lack the usual DNA repair enzymes. The frequency of normal mutations that render the bacteria independent of histidine (i.e., the frequency of spontaneous revertants) is low. The test allows one to evaluate the impact of a compound on this revertant frequency.
# (§2) In this example the compounds of the present invention are tested for their dark mutagenicity using an Ames assay. The procedures used for the Salmonella mutagenicity test as described in detail by Maron and Ames were followed exactly. Maron, D. M. and B. N. Ames, Mutation Research 113: 173 ( 1983). A brief description for each procedure is given here. The tester strains TA97a, TA98, TA100, TA102, TA1537 and TA1538 were obtained from Dr. Ames. TA97a, TA98, TA1537 and TA1538 are frameshift tester strains. TA100 and TA102 are base-substitution tester strains. Upon receipt each strain was cultured under a variety of conditions to confirm the genotypes specific to the strains.
# (§3) The first tests done with the strains were to determine the range of spontaneous reversion for each of the strains. With each mutagenicity experiment the spontaneous reversion of the tester strains to histidine independence was measured and expressed as the number of spontaneous revertants per plate. This served as the background controls.
# (§4) For all experiments, the pre-incubation procedure was used. In this procedure one vial of each tester strain was thawed and 20 μL of this culture was added to 6 mL of Oxoid Nutrient Broth #2. This solution was allowed to shake for 10 hours at 37° C. In the pre-incubation procedure, 0.1 mL of this overnight culture was added to each of the required number of sterile test tubes. To half of the tubes 0.5 mL of a 10% S-9 solution containing Aroclor 1254 induced rat liver extract (Molecular Toxicology Inc., Annapolis, Md.), and MgCl2, KCl, glucose-6-phosphate, NADP, and sodium phosphate buffer (Sigma, St. Louis, Mo.) were added. To the other half of the tubes 0.5 mL of 0.2M sodium phospate buffer, pH 7.4, was used in place of the S-9 mixture (the -S9 samples). Finally 0.1 mL of the test solution containing either 0, 0.1, 0.5, 1, 5, 10, 50, 100, 250, or 500 μg/mL of the test compound was added. The 0.7 mL mixture was vortexed and then pre-incubated while shaking for 20 minutes at 37° C. After shaking, 2 mL of molten top agar supplemented with histidine and biotin were added to the 0.7 mL mixture and immediately poured onto a minimal glucose agar plate (volume of base agar was 20 mL). The top agar was allowed 30 minutes to solidify and then the plates were inverted and incubated for 44 hours at 37° C. After incubation the number of revertant colonies on each plate were counted. […] (“n” represents the number of replicates performed for each data point.)
# (§5) Maron and Ames (1983) describe the conflicting views with regard to the statisical treatment of data generated from the test.
# [2] = tested on: Salmonella typhimurium TA97a
# Source text: as §1, §2, §3, §4, §5
# [3] = tested on: Chinese hamster ovary (CHO) cells; assay: In vitro genotoxicity screen in CHO cells; type: cell-based; conditions: approximately 3 hours exposure in the dark, dilutions 1-1000 μg/ml
# Source text: The positive control was methylmethane sulfonate.
# Coverslips were mounted with Permount.
# [4] = tested on: Salmonella typhimurium TA1538; assay: Ames assay (dark mutagenicity), strain TA1538
# Source text: as §1, §2, §3, §4, §5
# [5] = tested on: Salmonella typhimurium TA102; assay: Ames assay (dark mutagenicity), strain TA102
# Source text: as §1, §2, §3, §4, §5
# [6] = tested on: Duck Hepatitis B Virus (DHBV); assay: Inactivation of DHBV in platelet concentrate, PCR amplification readout; conditions: 5J/CM^2 UVA
# Description: This example describes the protocol for inactivation of Duck Hepatitis B Virus (DHBV), a model for Hepatitis B Virus, using compounds of the present invention. DHBV in duck yolk was added to platelet concentrate (PC) to a final concentration of 2×10^7 particles per mL and mixed by gentle rocking for ≧15 min. […] Samples, including controls without added psoralen, were irradiated with 5J/CM^2 UVA, with mixing at 1 J/cm^2 increments. After irradiation, leukocytes and platelets were separated from virus by centrifugation. […] Samples were extracted with phenol-chloroform and chloroform, followed by ethanol precipitation. […] PCR amplicons were generated using primers pairs DCD03/DCD05 (127 bp), DCD03/DCD06 (327 bp) and DCD03/DCD07 (1072 bp). PCR was performed in a standard PCR buffer containing 0.2 mM each deoxyribonucleoside 5′-triphosphates (dATP, dGTP, dCTP, and dTTP), […], and 0.5 units Taq polymerase per […]. 30 cycles of amplification were performed with the following thermal profile: 95° C. 30 sec, 60° C. 30 sec, 72° C. 1 min. The amplification was followed by a 7 min incubation at 72° C. to yield full length products. […] was added at an amount of […] in order to detect and quantify the resulting products. Products were separated by electrophoresis on denaturing polyacrylamide slab gels and counted. The absence of signal in a given reaction was taken to indicate effective inactivation of DHBV.
# [7] = tested on: Salmonella typhimurium TA100
# Source text: as §1, §2, §3, §4, §5
# HIV-1 = conditions: concentrations of 64 μM of compound or higher
# Description: Pathogen inactivation efficiency of several compounds of the present invention was evaluated by examining the ability of the compounds to inactivate cell-free virus (HIV). Inactivation of cell-free HIV was performed as follows.
# As in the R17 assay, small aliquots of the compounds listed in TABLES 10 and 11, below, at the concentrations listed in the table, were added to stock HIV-1 to a total of 0.5 mL. The stock HIV (10^5-10^7 plaque forming units/mL) was in DMEM/15% FBS. […] Controls included HIV-1 stock only, HIV-1 plus UVA only, and HIV-1 plus the highest concentration of each psoralen tested, with no UVA. Post irradiation, all samples were stores frozen at −70° C. until assayed for infectivity by a microtiter plaque assay. Aliquots for measurement of residual HIV infectivity in the samples treated with a compound of the present invention were withdrawn and cultured.
# Residual HIV infectivity was assayed using an MT-2 infectivity assay. […] After 24 to 48 hours, the red fluorescence-stained microplaques were visualized by placing the plates on an 8,000 μW/cm^2 304 nm UV light box (Fotodyne, Inc., New Berlin, Wis.). The plaques were counted at a magnification of ×20 to ×25 through a stereomicroscope.
# [8] = tested on: Salmonella tester strains TA97a, TA98, TA100, TA102, TA1537 and TA1538; assay: Ames assay, overall assessment over the tester strains
# Source text: as §1, §2, §3
# For all experiments, the pre-incubation procedure was used. In this procedure one vial of each tester strain was thawed and 20 μL of this culture was added to 6 mL of Oxoid Nutrient Broth #2. This solution was allowed to shake for 10 hours at 37° C. In the pre-incubation procedure, 0.1 mL of this overnight culture was added to each of the required number of sterile test tubes. To half of the tubes 0.5 mL of a 10% S-9 solution containing Aroclor 1254 induced rat liver extract (Molecular Toxicology Inc., Annapolis, Md.), and MgCl2, KCl, glucose-6-phosphate, NADP, and sodium phosphate buffer (Sigma, St. Louis, Mo.) were added. To the other half of the tubes 0.5 mL of 0.2M sodium phospate buffer, pH 7.4, was used in place of the S-9 mixture (the -S9 samples). Finally 0.1 mL of the test solution containing either 0, 0.1, 0.5, 1, 5, 10, 50, 100, 250, or 500 μg/mL of the test compound was added. […] After incubation the number of revertant colonies on each plate were counted. […]
# [9] = tested on: GMP-140 (p-selectin) on platelets; assay: Platelet function: GMP-140 expression (flow cytometry, CD62); type: cell-based, human; conditions: 100 μM compound, 5 Joules/cm^2, 5 days storage
# Description: (§6) To measure the effects of the present compounds and methods of decontamination on platelet function using these four indicators, four samples were prepared for each compound tested, two control samples and two containing compound. Three units of human platelets were obtained from the Sacramento Blood Center, Sacramento, Calif. These were each transferred under sterile conditions to 50 ml centrifuge tubes, then aliquots of each unit were transferred into a second set of 50 ml sterile centrifuge tubes. To each centrifuge tube containing platelet concentrate (PC), an aliquot of compound stock was added to reach a final concentration of 100 μM of compound. […] The samples were pipetted gently up and down to mix. Then aliquots (either 3 ml or 8 ml) of each sample was transferred to two sterile Teflon™ Medi-bags™ (American Fluoroseal Co., Silver Springs, Md.) (presently owned by The West Company, Lionville, Pa.). Samples were treated in one of two different sized bags, having either 3 ml or 8 ml capacity. […] For each compound tested, two control samples without compound were prepared by again removing aliquots of platelet concentrate (17 ml if using an 8 ml bag, […] if using a 3 ml bag) from the same one of the first set of 50 ml centrifuge tubes from which the compound sample was drawn, and dividing into Medibags, as before. One of each pair of Medibags containing a compound, and one of each pair of control Medibags, were illuminated for 5 Joules/cm^2 on the device described in Example 1, above. Then all experimental and control Medibags were placed on a platelet shaker for storage for 5 days. The same experiments were repeated several times to obtain more statistically meaningful data, as represented by “n”, the number of data points represented, in the graphs of FIGS. 21-24, discussed below.
# human platelets = conditions: 100 μM compound, 5 Joules/cm^2, 5 days storage
# Description: as §6
# A Sysmex cell counter was used to measure platelet count in the platelet samples. Samples were diluted 1:3 in blood bank saline.
# mouse reticulocytes = conditions: increased dose levels, male Balb/c mice, tail vein
# Description: Male Balb/c mice were then injected with 0.1 ml of a compound solution via the tail vein. At least 3 mice were injected per dose level. Saline only was used as a negative control. For a positive control, cyclophosphamide (cycloPP) was administered at a dose of 30 mg/kg. In the experimental group, the injections were repeated once per day for four days. In the positive control group, the sample was administered only once, on day three. On day 5, several microliters of blood were withdrawn from each subject and smeared on a glass slide. Cells were fixed in absolute methanol and stored in a slide rack.
# For analysis, cells were stained with acridine orange and visualized under a fluorescence microscope by counting: (i) the number of reticulocytes per 5000 erythrocytes; and (ii) the number of micronucleated reticulocytes per 1000 reticulocytes. Reticulocytes were distinguished by their red fluorescence due to the presence of RNA. Micronuclei were distinguished by their green fluorescence due to the presence of DNA. The percentage of reticulocytes (%PCE) was then calculated. A decrease in the frequency of […] in the percentage of reticulocytes, is an indication of bone marrow toxicity. The percentage of reticulocytes with micronuclei (%PCE with MN) was also calculated. An increase in %PCE with MN is a measure of clastogenicity.
# After initial results were determined, the experiment was repeated using increased dose levels, until: (i) Micronucleus formation was seen; or (ii) Bone marrow toxicity was observed; or (ii) The lethal dose was reached; or (iv) A dose of 5 g/kg was administered.
# [10] = tested on: Salmonella typhimurium TA98; assay: Ames assay (dark mutagenicity), strain TA98
# Source text: as §1, §2, §3, §4, §5
compound,measurement,setting,value
"Cc1oc2c(C)c3oc(=O)cc(C)c3cc2c1CN [AMT, 4′-Aminomethyl-4,5′,8-trimethylpsoralen, reference compound]",dose at which frameshift mutagenicity was shown,[1]; TA1537,5 μg/plate
same,revertants per plate,"[1]; TA1537 +S9, 100 μg/plate",500
same,revertants per plate,"[2]; TA97a −S9, 0.1 μg/plate",14
same,revertants per plate,"[2]; TA97a −S9, 0.5 μg/plate",9
same,revertants per plate,"[2]; TA97a −S9, 1 μg/plate",54
same,revertants per plate,"[2]; TA97a −S9, 5 μg/plate",73
same,genotoxic (toxic) concentration,[3],30 µg/mL
same,dose at which frameshift mutagenicity was shown,[4]; TA1538,1 μg/plate
same,revertants per plate,"[4]; TA1538 −S9, 0.1 μg/plate",3
same,revertants per plate,"[4]; TA1538 −S9, 0.5 μg/plate",4
same,revertants per plate,"[4]; TA1538 −S9, 1 μg/plate",4
same,revertants per plate,"[4]; TA1538 −S9, 5 μg/plate",13
same,revertants per plate,"[4]; TA1538 −S9, 10 μg/plate",14
same,revertants per plate,"[5]; TA102 +S9, 0.1 μg/plate",−20
same,revertants per plate,"[5]; TA102 +S9, 0.5 μg/plate",5
same,revertants per plate,"[5]; TA102 +S9, 1 μg/plate",−17
same,revertants per plate,"[5]; TA102 +S9, 5 μg/plate",51
same,PCR amplification of the 1072 bp DHBV amplicon,[6],a signal could be detected
same,PCR amplification of the 1072 bp DHBV amplicon,[6]; 70 and 100 mM levels,inhibited PCR amplification
"Cc1oc2c(C)c3oc(=O)cc(C)c3cc2c1CCN [Compound 3, 4′-(2-aminoethyl)-4,5′,8-trimethylpsoralen]",revertants per plate,"[7]; TA100 +S9, 5 μg/plate",−19
same,revertants per plate,"[7]; TA100 +S9, 10 μg/plate",8
same,revertants per plate,"[4]; TA1538 −S9, 5 μg/plate",0
same,revertants per plate,"[4]; TA1538 −S9, 10 μg/plate",−6
same,HIV inactivation activity compared with AMT,HIV-1,significantly more active than AMT
same,mutagenicity (overall),"[8]; strains tested: TA100 and TA1538, ±S9, 5 and 10 μg/plate",no mutagenicity
"Cc1cc(=O)oc2c(C)c3oc(CNCCCCN)c(C)c3cc12 [Compound 17, 5′-(6-amino-2-aza)hexyl-4,4′,8-trimethylpsoralen]",GMP-140 expression: sample treated with light and psoralen (PCD) versus day 5 untreated control (D5),[9],little or no difference
same,platelet count compared with samples treated with light alone,human platelets,higher platelet count than samples treated with light alone
same,outcome of dose escalation in the micronucleus assay,mouse reticulocytes,the acutely lethal dose was reached before there were any signs of bone marrow toxicity or micronucleus formation
"Cc1cc(=O)oc2c(C)c3oc(COCCN)c(C)c3cc12 [Compound 18, 5′-(4-amino-2-oxa)butyl-4,4′,8-trimethylpsoralen]",GMP-140 expression: sample treated with light and psoralen (PCD) versus day 5 untreated control (D5),[9],notable increase above the control
same,revertants per plate,"[1]; TA1537 +S9, 10 μg/plate",8
same,revertants per plate,"[1]; TA1537 +S9, 50 μg/plate",6
same,revertants per plate,"[1]; TA1537 +S9, 100 μg/plate",26
same,revertants per plate,"[1]; TA1537 +S9, 200 μg/plate",42
same,revertants per plate,"[1]; TA1537 −S9, 10 μg/plate",21
same,revertants per plate,"[1]; TA1537 −S9, 50 μg/plate",303
same,revertants per plate,"[1]; TA1537 −S9, 100 μg/plate",390
same,revertants per plate,"[1]; TA1537 −S9, 200 μg/plate",225
same,platelet count compared with samples treated with light alone,human platelets,higher platelet count than samples treated with light alone
same,mutagenic response compared with AMT,[8]; in the absence of S9,"higher in the absence of S9, but still was significantly below that of AMT"
same,mutagenic response,[8]; in the presence of S9 in strains TA 9o and TA 1537,only a weak response at high concentrations
same,revertants per plate,"[10]; TA98 +S9, 10 μg/plate",8
same,revertants per plate,"[10]; TA98 +S9, 50 μg/plate",6
same,revertants per plate,"[10]; TA98 +S9, 100 μg/plate",26
same,revertants per plate,"[10]; TA98 +S9, 200 μg/plate",42
same,revertants per plate,"[10]; TA98 −S9, 10 μg/plate",21
same,revertants per plate,"[10]; TA98 −S9, 50 μg/plate",303
same,revertants per plate,"[10]; TA98 −S9, 100 μg/plate",390
same,revertants per plate,"[10]; TA98 −S9, 200 μg/plate",225
same,outcome of dose escalation in the micronucleus assay,mouse reticulocytes,the acutely lethal dose was reached before there were any signs of bone marrow toxicity or micronucleus formation
